Measured values from patent US5663157A, “22-en-25-oxa derivatives in the vitamin D series, process for their production, pharmaceutical preparations containing these derivatives as well as their use as pharmaceutical agents” (Schering Aktiengesellschaft, priority 1992, dated 1997).

Tests used:
[1] = hypercalcemic and hypercalcinuric activity in vivo; set-up: species or system Wistar rats; settings: for calcium excretion in urine, second collecting phase (16-22 hours): after oral calcium, solvent control 1.5 μmol/animal; for calcium excretion in urine, first collecting phase (0-16 hours): solvent control 12.2 μmol/animal; for calcium excretion in second collecting phase (16-22 hours), result in words: 200 μg/kg s.c. versus calcitriol 2 μg/kg and solvent control; for serum calcium concentration: 22 hours after administration, solvent control 3.0 mmol/l; for hypercalcemia induction: 200 μg/kg subcutaneous; for hypercalcemia induction / in vivo potency reduced by factor in comparison to calcitriol: male Wistar rats; for in vivo potency reduced by factor in comparison to calcitriol: calcium metabolism, subcutaneous
Method: To assess the corresponding activities of the substances according to the invention, the hypercalcemic and hypercalcinuric activity in vivo is determined. […] Urine is collected in the period of 0-16 hours after substance administration. Then, the animals orally receive 1 μmol of calcium in 6.5% klucel (hydroxypropyl cellulose) and again urine is collected for the period of 16-22 hours after substance administration. The urine volume of each fraction is measured to measure the absolute calcium excretion. After 22 hours, the animals are killed by decapitation and the blood is collected. The calcium concentration in serum and urine is determined by flame photometry.

HL 60 cells = assay: HL 60 differentiation induction (NBT reduction to formazan); format: cell-based; settings: Homo sapiens, 96 hours incubation, formazan at 650 nm, read-out: ED50 (differentiation induction of HL 60 cells to macrophages)
Method: HL 60 cells are cultivated in tissue-culture medium (RPMI-10% fetal calf serum) at 37° C. in an atmosphere of 5% CO2 in air.
For substance testing, the cells are centrifuged off and 2.8 ×10^5 cells/ml in phenol red-free tissue-culture medium are taken up. The test substances are dissolved in ethanol and diluted with tissue-culture medium without phenol red to the desired concentration. The dilution stages are mixed with the cell suspension in a ratio of 1:10 and pipetted in 100 μl each of this cell suspension mixed with substance in an indentation of a 96-hole plate. For control, a cell suspension is analogously mixed with the solvent.
After incubation over 96 hours at 37° C. in 5% CO2 in air, 100 μl of an NBT-TPA solution (nitro blue tetrazolium (NBT), final concentration in the batch of 1 mg/ml, tetradecanoyl phorbol myristate-13-acetate (TPA), final concentration in the batch of 2 ×10^-7 mol/l) is pipetted in the cell suspension in every indentation of the 96-hole plate.
By incubation over 2 hours at 37° C. and 5% CO2 in air, NBT is reduced to insoluble formazan because of the intracellular oxygen radical release, stimulated by TPA, in the cells differentiated to macrophages.
For completion of the reaction, the indentations of the 96-hole plate are suctioned off, and the adhering cells are fixed by adding methanol and dried after fixing.
To dissolve the formed intracellular formazan crystals, 100 μl of potassium hydroxide (2 val/l) and 100 μl of dimethyl sulfoxide are pipetted in each indentation and ultrasonically treated for 1 minute. The concentration of formazan is measured by spectrophotometry at 650 nm.
The concentration of formed formazan is regarded as a measurement for the differentiation induction of the HL 60 cells to macrophages.

Row | SMILES | calcium excretion in urine, second collecting phase (16-22 hours) ([1]; calcitriol 2 μg/kg s.c.) | calcium excretion in urine, first collecting phase (0-16 hours) ([1]; calcitriol 2 μg/kg s.c.) | EC50 (HL 60 cells) | calcium excretion in second collecting phase (16-22 hours), result in words [1] | serum calcium concentration ([1]; 200 μg/kg s.c.) | calcium excretion in urine, second collecting phase (16-22 hours) ([1]; 200 μg/kg s.c.) | calcium excretion in urine, first collecting phase (0-16 hours) ([1]; 200 μg/kg s.c.) | hypercalcemia induction [1] | in vivo potency reduced by factor in comparison to calcitriol [1]
1 | C=C1/C(=C\C=C2/CCC[C@]3(C)[C@@H]([C@H](C)CCCC(C)(C)O)CC[C@@H]23)C[C@@H](O)C[C@@H]1O [calcitriol, 1α,25-Dihydroxycholecalciferol, reference compound] | 25.1 μmol/animal | 40.6 μmol/animal | 1.6 nM | – | – | – | – | – | –
2 | C=C1/C(=C\C=C2/CCC[C@]3(C)[C@@H]([C@H](C)/C=C/COCC(C)(C)O)CC[C@@H]23)C[C@@H](O)C[C@@H]1O [compound 16, (5Z,7E,22E)-(1S,3R)-24-(2-Hydroxy-2-methylpropoxy)-9,10-secochola-5,7,10(19),22-tetraene-1,3-diol] | – | – | 3.2 nM | not increased relative to the solvent control | 3.0 mmol/L | 3.6 μmol/animal | 62.4 μmol/animal | no hypercalcemia | > 100
3 | C=C1/C(=C\C=C2/CCC[C@]3(C)[C@@H]([C@H](C)/C=C/COCC(O)(CC)CC)CC[C@@H]23)C[C@@H](O)C[C@@H]1O [compound 17, (5Z,7E,22E)-(1S,3R)-24-(2-Ethyl-2-hydroxybutoxy)-9,10-secochola-5,7,10(19),22-tetraene-1,3-diol] | – | – | 1 nM | not significantly different to the standard calcitriol | 3.4 mmol/L | 47.0 μmol/animal | 61.7 μmol/animal | slight hypercalcemia | ~100
